± gives the expanded uncertainty stated by the source.
How the values were obtained:
[1] = refractive index (Na D-line) (dimensionless); conditions: 298.15 K; 101.33 kPa; Liquid; Standard Abbe refractometry
[2] = 298.15 K, 101.33 kPa, Liquid; for viscosity: Capillary tube (Ostwald / Ubbelohde) method; for speed of sound: Sing-around technique in a fixed-path interferometer; for mass density: Vibrating tube method

Compound | refractive index [1] | viscosity [2] | speed of sound [2] | mass density [2]
CCO [ethanol] | 1.3595 ± 0.0004 | 1.091 ± 0.008 mPa·s | 1144.2 ± 1.6 m/s | 785.21 ± 0.42 kg/m3
CN1CCCC1=O [N-methylpyrrolidone] | 1.468 ± 0.0004 | 1.681 ± 0.013 mPa·s | 1545.2 ± 1.9 m/s | 1028.3 ± 0.5 kg/m3
